Test results as given in ChEMBL document CHEMBL1145392, “Natural feruloyl monoglyceride macrocycles as protecting factors against free-radical damage of lipidic membranes” (Bioorg Med Chem Lett, 2007).
The source made the active and inactive calls.

How the values were obtained:
Type in all cases: functional
[1] = Superoxide radical scavenging activity assessed as NBT reduction
[2] = test system: Liver microsomes; assay: Inhibition of lipid peroxidation activity in Wistar rat liver microsomes by TBRAS assay; settings: Microsome
[3] = Hydrogen peroxide radical scavenging activity

Measured: Activity

COc1cc(/C=C/C(=O)OCC2COC(=O)CCCCCCCCCCCCCCCCCCCCCCCO2)ccc1O (configuration not stated)
active: [1] | [2] | [3]

COc1cc(/C=C/C(=O)OCC2COC(=O)CCCCCCCCCCCCCCCCCCCCO2)ccc1O (configuration not stated)
active: [1] | [2] | [3]

COc1cc(/C=C/C(=O)OCC2COC(=O)CCCCCCCCCCCCCCCCCCCCCCCCCCCCO2)ccc1O (configuration not stated)
active: [1] | [2] | [3]

COc1cc(/C=C\C(=O)OCC2COC(=O)CCCCCCCCCCCCCCCCCCCCCCCCCCCCCCCCCO2)ccc1O (configuration not stated)
active: [1] | [2] | [3]

COc1cc(/C=C/C(=O)OCC2COC(=O)CCCCCCCCCCCCCCCCCCCCCCCCCCO2)ccc1O (configuration not stated)
active: [1] | [2] | [3]

COc1cc(/C=C\C(=O)OCC2COC(=O)CCCCCCCCCCCCCCCCCCCCCCCCO2)ccc1O (configuration not stated)
active: [1] | [2] | [3]

COc1cc(/C=C/C(=O)OCC2COC(=O)CCCCCCCCCCCCCCCCCCCCCCCCO2)ccc1O (configuration not stated)
active: [1] | [2] | [3]

COc1cc(/C=C/C(=O)OCC2COC(=O)CCCCCCCCCCCCCCCCCCO2)ccc1O (configuration not stated)
active: [1] | [2] | [3]

COc1cc(/C=C/C(=O)OCC2COC(=O)CCCCCCCCCCCCCCCCCCCCCCCCCCCCCO2)ccc1O (configuration not stated)
active: [1] | [2] | [3]
